Data as given in patent US6479553B1, “Use of certain affinity NMDA antagonists as antidepressants” (AstraZeneca AB, priority 1999, dated 2002).
“Also recorded” adds a separate entry of the source. Marks after values point to notes of the source that are not given here.

What was measured:
Assay type in all cases: in vivo
[1] = system: rat; assay: Test for possible sedative activity (motor activity) in the rat; conditions: 200 mg/kg, up to fifty times the oral effective dose in the MES test
Procedure: (S)-1-Phenyl-2-(2-pyridyl)ethanamine was further tested for possible sedative activity in the rat. At doses up to fifty times the oral effective dose in the maximum electroshock seizure test (MES), (S)-1-phenyl-2-(2-pyridyl)ethanamine induced no changes in four parameters of motor activity, namely, distance travelled, ambulatory time, stereotyped time and resting time. The dose administered was 200 mg/kg.

[2] = system: male NMRI mice; assay: Small tube test in mice; conditions: for Average Immobility Time: small tube test, 60 minutes pre-test, last four minutes of test; for Effect on immobility in the small tube test, in words: summary of Table 2, check for non-specific stimulant activity
[3] = system: male NMRI mice; assay: Forced swim test in mice; conditions: for Average Immobility Time: forced swim test, 60 minutes pre-test, last four minutes of test

Compound: Cl.Cl.N[C@@H](Cc1ccccn1)c1ccccc1 [(S)-1-phenyl-2-(2-pyridyl)ethanamine dihydrochloride]
- Changes in four parameters of motor activity (distance travelled, ambulatory time, stereotyped time and resting time) [1]: no changes
- Average Immobility Time ([2]; dose 1 mg/kg i.p.): 192 s
- Average Immobility Time ([2]; dose 3 mg/kg i.p.): 210* seconds
- Average Immobility Time ([2]; dose 10 mg/kg i.p.): 201 s
- Effect on immobility in the small tube test, in words [2]: little effect
- Average Immobility Time ([3]; dose 1 mg/kg i.p.): 158 s
- Average Immobility Time ([3]; dose 3 mg/kg i.p.): 120* seconds
- Average Immobility Time ([3]; dose 10 mg/kg i.p.): 145* seconds
- Effect in the forced swim test (reduction in immobility time), in words ([3]; summary of Table 1, dihydrochloride): positive effects; also recorded: have activity in the mouse forced swim test

Compound: CN(C)CCCN1c2ccccc2CCc2ccccc21 [Imipramine, imipramine]
- Average Immobility Time ([2]; dose 10 mg/kg i.p.): 202 s
- Effect on immobility in the small tube test, in words [2]: little effect
- Average Immobility Time ([3]; dose 10 mg/kg i.p.): 143* seconds
- Effect in the forced swim test (reduction in immobility time), in words ([3]; summary of Table 1): very similar result to that observed with (S)-1-phenyl-2-(2-pyridyl)ethanamine

Compound: (+)-MK 801
- Average Immobility Time ([2]; dose 0.01 mg/kg i.p.): 190 s
- Average Immobility Time ([2]; dose 0.03 mg/kg i.p.): 173 s
- Average Immobility Time ([2]; dose 0.1 mg/kg i.p.): 128* seconds
- Average Immobility Time ([2]; dose 0.3 mg/kg i.p.): 84* seconds
- Effect on immobility in the small tube test, in words [2]: reduced immobility
- Average Immobility Time ([3]; dose 0.01 mg/kg i.p.): 155 s
- Average Immobility Time ([3]; dose 0.03 mg/kg i.p.): 164 s
- Average Immobility Time ([3]; dose 0.1 mg/kg i.p.): 80* seconds
- Average Immobility Time ([3]; dose 0.3 mg/kg i.p.): 10* seconds
- Effect in the forced swim test (reduction in immobility time), in words ([3]; summary of Table 1): positive effects
